Measured values taken from US20090238852A1, “METHODS FOR CONTROLLING INTRACELLULAR CALCIUM LEVELS ASSOCIATED WITH AN ISCHEMIC EVENT” (University of Utah Research Foundation, priority 2008, published 2009).

Columns and labels:
[1] = test system: rabbit ventricular myocytes; experiment: Intracellular calcium [Ca^++]i in ventricular myocytes during paced metabolic ischemia (PMI), Fluo-3 flow cytometry; format: cell-based
Text: Consequently, it prevents intracellular sodium overload and subsequent reverse mode operation of the sodium-calcium exchanger. The effect of 2-O, 3-O desulfated heparin on accumulation of intracellular Ca^++ during ischemia was studied in an adult rabbit ventricular myocyte model previously reported (Boston D R, et al. J Pharmacol Exp Ther 285:716-723, 1998; Li F, et al. J Mol Cell Cardiol 33:2145-2155, 2001). Isolated cardiomyocytes have been validated as reliable models of ischemia (Diaz, R J, Wilson G J. Cardiovasc Res 70:286-296, 2006).
To produce the model, hearts are removed from albino rabbits (2-3 kg) anesthetized with sodium pentobarbital (65 mg/kg IV). The heart was immediately attached to an aorta cannula. Continuous perfusion of the coronary arteries at 37° C. by a pump (Masterflex, Cole-Parmer Instrument Co., Chicago, Ill.) was initiated at a perfusion pressure of 60 mm Hg. The heart was first perfused with nominally Ca^++-free modified Krebs-Ringer bicarbonate buffered solution (MKRBB, pH 7.40, containing in mmol/L: NaCl 126, KCl 4.4, […], MgCl2 1.0, HEPES 24, probenecid 0.5 and glucose 5) for 10 min, immediately followed by 15-25 min of recirculating perfusion with the same solutions containing 0.3 mg/ml collagenase (Type 2, Worthington Biochemical, Freehold, N.J.), 0.4 mg/mL hyaluronidase (Type-S, Sigma-Aldrich, St. Louis, Mo.) and 50 μmol/L CaCl2. The heart was then detached from the cannula, and the left ventricle was minced and transferred to a 50 mL conical tube with the same solution containing 0.24 mg/mL collagenase, 0.02 mg/mL trypsin and 50 μmol/L Ca^++ for a second digestion. The minced tissue was continuously agitated by gassing the solution with 5% CO2 and 95% O2 to help release isolated myocytes. The resulting supernatant was transferred to another conical tube with the same volume of the same solution containing 0.03 mg/mL of trypsin inhibitor (Sigma-Aldrich). The cell suspension was centrifuged at 5×g for 5 minutes. The supernatant was discarded and cells were resuspended in solution with a higher Ca^++ concentration (200 μmol/L) and incubated in a CO2 incubator (5% CO2, 28° C.) to settle down cells by gravity for 10 min. The same procedure was repeated twice to bring up the Ca^++ concentration slowly (500, then 1000 μmol/L). Calcium step-up solutions were made from MKRBB with 2% albumin, 50 μmol/L CaCl2 mixed with the appropriate amount of minimum essential medium (MEM, Gibco Laboratories, Grand Island, N.Y.). At the end of isolation, cells were filtered with a […] to avoid cell clumping during flow cytometry studies. The yield of rod-shaped viable myocytes averaged 50%. Cells were used for experiments within 4 hours after dissociation.
In these studies, intracellular calcium concentration [Ca^++]i was measured by flow cytometry. Measurement of isolated mouse and rabbit ventricular myocyte [Ca^2+]i and [Na^+]i by flow cytometry has been described (Zhang et al., J. Cardiovasc. Pharmacol. 51: 443-449 (2008); Li et al., J. Mol. Cell. Cardiol. 33: 2145-2155 (2001)). [Ca^++]i was measured with the Ca^++ sensitive fluorescent probe, Fluo 3-AM (Molecular Probes, Eugene, Oreg.), using a FACScan (Becton-Dickinson, MA). The cells were exposed to 4 μmol/L Fluo-3 AM for 30 min at 37° C. The cells were then separated into aliquots. After 40 min of wash, the cells were exposed to paced metabolic ischemia (MI) for 45 min at 37° C. Metabolic ischemia was accomplished by incubating cells in a glucose-free MKRBB solution (pH 7.40) containing 2 mmol/L sodium cyanide (NaCN) to impair mitochondrial and glycolytic generation of ATP. To reproduce the situation in the beating ischemic heart, during the period of metabolic ischemia, myocytes were placed in a 5-well chamber with equal volumes of myocyte suspensions from the same heart dissociation placed in each well. The chamber was water bathed to maintain temperature at 37° C. and bubbled with 5% CO2 in air to keep myocytes in suspension. […]

[2] = test system: NCX; experiment: NCX current (INCX) voltage clamp in intact isolated ventricular myocytes; format: cell-based, rabbit; conditions: ODSH 100 μg/ml; approximately −60 mV to +50 mV; n = 5; FIG. 7
Text: The direct effects of ODSH on NCX were further measured by means of voltage clamp studies in intact isolated rabbit ventricular myocytes. […] This finding was initially surprising but is consistent with a previous report that heparin and heparan sulfate disaccharides can stimulate Ca^2+ extrusion by NCX in smooth muscle cell lines (Shinjo et al, 2002). […] We therefore studied the effects of ODSH on Na^+ loading.

[3] = test system: blood coagulation (aPTT, ACT); experiment: Phase I bolus plus 12 hour infusion study: coagulation tests (aPTT, ACT); format: in vivo, human; conditions: all dosing regimens; FIG. 20
Experimental: A study was performed in twenty-four (24) healthy adult subjects to assess the effects of a bolus dose and 12 hour infusion of 2-O, 3-O desulfated heparin. The study was a Phase I, randomized, double-blind, dose escalation study with single-day treatment periods. Subjects were males between the ages of 18 and 45, and were normal in body weight. They all had normal coagulation function and hemoglobin values at baseline. […] Eighteen (18) subjects were randomized to receive ODSH and six (6) subjects were randomized to receive placebo. Subjects received either ODSH or placebo as described below in Table 13.
For each subject, ODSH as a 50 mg/ml formulation was diluted with normal saline and administered as a bolus infused over 15 minutes containing the calculated amount of ODSH the subject was to receive, followed by a constant infusion for 12 hours of ODSH diluted in saline. Placebo consisted of 50 mL of normal saline infused over 15 minutes, followed by normal saline infused for 12 hours. Immediately before infusion and after the start of each infusion, blood was drawn at periodic times (over a total 24 hour period) to monitor the effect of infusion on the following laboratory studies: activated partial thromboplastin time (aPTT); prothrombin time (PT); activated clotting time (ACT); and ODSH plasma level.

[4] = human, in vivo
Experimental: A study was performed in eight (8) healthy adult male and female subjects to assess the effects of a bolus dose and 72 hour infusion of 2-O, 3-O desulfated heparin. The study was a Phase I study with a three day treatment period. Doses were adjusted to maintain an aPTT level of 40-45 seconds. Subjects were between the ages of 18 and 60, were not pregnant, and were normal in body weight. They all had normal coagulation function and hemoglobin values at baseline.
Subjects received an initial bolus of 8 mg/kg of ODSH over 15 minutes, followed by 72 hours continuous infusion beginning at 0.58 mg/kg/hr. For each subject ODSH as a 50 mg/ml formulation was diluted with normal saline and administered as a bolus infused over 15 minutes containing the calculated amount of ODSH the subject was to receive, followed by infusion of ODSH diluted in saline. The infusion dose was adjusted to maintain an aPTT of 40-45 seconds. Immediately before infusion and after the start of each infusion, blood was drawn at periodic times (over a total 72 hour period) to monitor the effect of infusion on the following laboratory studies: activated partial thromboplastin time (aPTT), prothrombin time (PT), activated clotting time (ACT), and ODSH plasma level. Serum chemistries and a complete blood count were checked immediately before infusion and again periodically for up to 240 hours later. Using values for aPTT and ODSH levels, pharmacokinetic parameters were calculated by noncompartmental methods using a commercial software program (PhAST 2.3-001). The following pharmacokinetic parameters were calculated as above: Cmax; Kel; tmax; AUC O-t; AUCinf, t1/2; CL; and Vdss.

2-O, 3-O desulfated heparin [ODSH]
effect on myocyte [Ca^2+]i during simulated ischemia ([1]; 45 min P-MI, ODSH 1, 10, 100 μg/mL, FIG. 3): dose-dependent reduction of [Ca^2+]I
further reduction in [Ca^2+]i in the presence of KBR ([1]; ODSH 100 μg/mL with KBR 10 μmol/L, 45 min simulated ischemia, FIG. 4): no significant further reduction in [Ca^2+]i
additional effect on Ca^2+ loading during P-MI in the presence of ranolazine ([1]; ODSH 100 μg/ml with ranolazine 10 μM, FIG. 8): no additional effect on Ca^2+ loading
[Ca^++]i ([1]; PMI 45 min + ODSH 1 μg/mL, n = 7, PMI alone 1133.6 ± 78.4, Hepes 241.9 ± 23.0): 1013.8 ± 69.2 nM
[Ca^++]i ([1]; PMI 45 min + ODSH 10 μg/mL, n = 7, PMI alone 1133.6 ± 78.4): 739.0 ± 63.8 nM
[Ca^++]i ([1]; PMI 45 min + ODSH 100 μg/mL, n = 7, PMI alone 1133.6 ± 78.4): 684.3 ± 66.9 nM
[Ca^++]i ([1]; Table 6: PMI + ODSH 100 μg/mL, n = 7, PMI alone 985.5 ± 42.7, Hepes 269.6 ± 8.3): 688.6 ± 33.4 nM
effect on [Ca^2+]i during P-MI ([1]; each alone: ODSH 100 μg/ml, ranolazine 10 μM, FIG. 8, n = 7): reduced [Ca^2+]i to a similar degree
effect on NCX current (INCX) [2]: significant stimulation of exchange
ACT increases [3]: ACT increases providing adequate therapeutic anticoagulation necessary for the cardiac catheterization laboratory were observed in all dosing regimens
CL [4]: 0.17 mL/min/kg
Vdss [4]: 0.0489 L/kg
t1/2 [4]: 3.3 h
tmax [4]: 0.5 h
AUC, range across subjects ([4]; 8 mg/kg): 3,528-4,694 μg hr/mL
CL, range across subjects ([4]; 8 mg/kg): 0.147 to 0.197 mL/min/kg
Cmax, range across subjects ([4]; 8 mg/kg): 131 to 192 µg/mL
Vdss, range across subjects ([4]; 8 mg/kg): 0.0237 to 0.0662 L/kg
t1/2, range across subjects ([4]; 8 mg/kg): 1.9 to 4.4 h
